Source: patent US12391724B2, “Polypodoside sweet flavor modifier” (Firmenich Incorporated, priority 2019, dated 2025)
pEC50: −log10 of the molar value.

Legend:
T1R2/T1R3 receptor = molecular target: T1, T1R2/T1R3 receptor (Homo sapiens, UniProt Q7RTX0+Q8TE23); experiment: activation of the T1R2/T1R3 receptor; type: cell-based
T1 sequence (Q8TE23 20-839): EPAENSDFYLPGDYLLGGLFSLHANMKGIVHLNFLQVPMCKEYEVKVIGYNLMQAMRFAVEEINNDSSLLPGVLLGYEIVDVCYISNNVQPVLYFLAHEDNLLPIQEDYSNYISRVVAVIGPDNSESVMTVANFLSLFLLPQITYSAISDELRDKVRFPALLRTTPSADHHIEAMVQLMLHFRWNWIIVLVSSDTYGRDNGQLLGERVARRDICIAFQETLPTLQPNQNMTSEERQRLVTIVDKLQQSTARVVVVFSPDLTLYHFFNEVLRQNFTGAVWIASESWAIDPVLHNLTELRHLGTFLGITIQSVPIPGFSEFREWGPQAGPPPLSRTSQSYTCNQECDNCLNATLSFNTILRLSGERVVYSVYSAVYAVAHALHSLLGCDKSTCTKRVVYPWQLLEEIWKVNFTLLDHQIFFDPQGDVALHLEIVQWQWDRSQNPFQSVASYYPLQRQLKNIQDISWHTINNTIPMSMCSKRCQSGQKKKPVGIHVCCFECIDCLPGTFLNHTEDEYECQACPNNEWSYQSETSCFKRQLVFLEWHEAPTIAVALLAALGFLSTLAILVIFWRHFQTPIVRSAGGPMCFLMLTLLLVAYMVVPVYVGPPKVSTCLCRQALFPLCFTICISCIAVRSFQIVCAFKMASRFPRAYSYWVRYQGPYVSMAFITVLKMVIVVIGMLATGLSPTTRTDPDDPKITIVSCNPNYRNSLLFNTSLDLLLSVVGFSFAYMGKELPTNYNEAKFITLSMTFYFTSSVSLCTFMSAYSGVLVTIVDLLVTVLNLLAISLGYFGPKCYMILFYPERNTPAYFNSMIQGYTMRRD
T1 sequence (Q7RTX0 21-852): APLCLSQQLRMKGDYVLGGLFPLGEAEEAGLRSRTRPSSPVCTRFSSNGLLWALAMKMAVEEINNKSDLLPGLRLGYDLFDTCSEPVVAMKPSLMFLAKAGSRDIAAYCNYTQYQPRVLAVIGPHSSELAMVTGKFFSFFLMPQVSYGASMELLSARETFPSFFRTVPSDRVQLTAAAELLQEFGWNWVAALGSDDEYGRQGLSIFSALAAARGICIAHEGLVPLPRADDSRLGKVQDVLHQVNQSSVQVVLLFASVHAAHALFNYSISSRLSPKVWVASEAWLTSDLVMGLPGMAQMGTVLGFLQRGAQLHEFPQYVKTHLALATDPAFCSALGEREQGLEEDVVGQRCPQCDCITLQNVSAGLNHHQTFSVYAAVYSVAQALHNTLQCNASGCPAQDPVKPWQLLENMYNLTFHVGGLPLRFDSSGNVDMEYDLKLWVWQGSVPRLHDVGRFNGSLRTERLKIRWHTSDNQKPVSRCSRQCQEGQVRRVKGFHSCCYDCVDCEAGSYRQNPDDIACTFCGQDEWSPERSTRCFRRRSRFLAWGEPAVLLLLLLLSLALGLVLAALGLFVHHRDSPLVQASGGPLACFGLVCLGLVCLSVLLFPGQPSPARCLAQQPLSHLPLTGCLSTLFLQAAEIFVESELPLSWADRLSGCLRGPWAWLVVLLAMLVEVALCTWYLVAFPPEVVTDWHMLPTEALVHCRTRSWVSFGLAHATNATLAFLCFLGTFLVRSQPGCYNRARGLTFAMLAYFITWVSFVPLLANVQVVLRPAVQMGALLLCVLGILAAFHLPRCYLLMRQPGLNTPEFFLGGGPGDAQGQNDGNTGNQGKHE
Text: The present isolated compounds have been tested and shown sweet taste modifying activities.

[1] = tested on: human panelists (sweetness); experiment: paired comparison (2-AFC) taste test for sweetness with human panelists; type: in vivo
Protocol: Test samples containing experimental compounds were presented in pairs to the human panelist and they were asked to determine which of the sample is sweeter. […] A group of 10-16 or more panelists participated in each test. Subjects refrained from eating or drinking (except water) for at least 1 hour prior to the test. Subjects rinsed with water several times to clean the mouth.
Taste tests were performed with sucrose or HFCS as the sweetener in the presence or absence of compound. A 0.2% stock solution of compound in water with sodium bicarbonate was prepared and then this stock solution was diluted in the final sample to achieve the targeted final concentration of compound. For the sample evaluated at pH 2.8 the pH of the solution is decreased to about pH 2.8 using citric acid. Taste samples were also prepared in a low sodium phosphate buffer (pH 7.1; “LSB”) lacking sucrose or HFCS to evaluate the taste of the compound alone. Low sodium phosphate buffer consists of 0.3 mM KCl, 0.5 mM Na2HPO4, and 0.175 mM KH2PO4. Sample volumes are usually 20 ml.
In one paired comparison test, the panelist was presented with two different samples and asked to identify the sample which is sweeter. The samples within a paired comparison test were presented in a randomized, counterbalanced order. Panelists had up to a 1 minute delay between taste tests to clear the mouth of any tastes.
Binomial probability tables were used to determine the probability of the correct number of responses occurring for each test at alpha=0.05
Paired comparison taste test for sweetness (0.25 mL sample size)

[2] = 4% sucrose vs 0% sucrose + 87 ppm compound, LSB pH 7.1, total 42
[3] = 4% sucrose vs 0% sucrose + 100 ppm compound, pH 7.1, total 36
[4] = 4% sucrose vs 0% sucrose + 125 ppm compound, pH 7.1, total 42
[5] = 4% sucrose vs 0% sucrose + 150 ppm compound, pH 7.1, total 36

Compound: CC1CCC(C(C)C2CCC3C4=CC(=O)C5CC(OC6OC(CO)C(OC7OC(C)C(O)C(O)C7O)C(O)C6O)CCC5(C)C4CCC32C)OC1OC1OC(C)C(O)C(O)C1O (centres unmarked) [Polypodoside G]
- pEC50 (T1R2/T1R3 receptor): 4.73

Compound: Polypodoside D
- Sample selected as sweeter by panelists: 0% Sucrose + Cmpd [1, 2]: 18
- Sample selected as sweeter by panelists: 4% Sucrose [1, 2]: 24
- sweetness of 4% Sucrose compared with the sample (in words) ([1]; 4% sucrose vs LSB + 87 ppm compound, pH ~7.1): not significantly different in sweetness
- sweet taste and potency in sensory studies (in words) ([1]; compared with Rebaudioside A): has a sweet taste and demonstrates higher potency than Rebaudioside A
- pEC50 (T1R2/T1R3 receptor): 5.38

Compound: COCC(C1CCC(C)C(OC2OC(C)C(O)C(O)C2O)O1)C1CCC2C3=CC(=O)C4CC(OC5OC(CO)C(O)C(O)C5O)CCC4(C)C3CCC21C (centres unmarked) [Polypodoside E]
- pEC50 (T1R2/T1R3 receptor): 4.74

Compound: C=C1C[C@@]23CC[C@H]4[C@@](C)(CCC[C@@]4(C)C(=O)O[C@@H]4O[C@H](CO)[C@@H](O)[C@H](O)[C@H]4O)[C@@H]2CC[C@]1(O[C@@H]1O[C@H](CO)[C@@H](O)[C@H](O[C@@H]2O[C@H](CO)[C@@H](O)[C@H](O)[C@H]2O)[C@H]1O[C@@H]1O[C@H](CO)[C@@H](O)[C@H](O)[C@H]1O)C3 [Reb A, Rebaudioside A]
- concentration equivalent to 4% sucrose ([1]; 2-AFC, pH 7.1): 125 ppm Reb A is equivalent to 4% sucrose.
- Sample selected as sweeter by panelists: 0% Sucrose + Cmpd [1, 3]: 8
- Sample selected as sweeter by panelists: 4% Sucrose [1, 3]: 28
- Sample selected as sweeter by panelists: 0% Sucrose + Cmpd [1, 4]: 22
- Sample selected as sweeter by panelists: 4% Sucrose [1, 4]: 20
- Sample selected as sweeter by panelists: 0% Sucrose + Cmpd [1, 5]: 24
- Sample selected as sweeter by panelists: 4% Sucrose [1, 5]: 12
